The assay relates to Spodoptera litura. The assay is described as follows: Feeding index against larvae of Spodoptera litura in castor leaves =.

`COC1=C2C(C)(C)C(=O)[C@H]3O[C@H]3[C@]2(C)[C@H]2CC[C@@]3(C)[C@H](c4ccoc4)C[C@H]4O[C@]43[C@]2(C)C1=O` [METHYL ETHER CEDRELONEEPOXIDE] yielded a PFI of 54%.
`CC(=O)O[C@@H]1C[C@H]2C(C)(C)C(=O)C=C[C@]2(C)[C@H]2CC[C@]3(C)C(=CC[C@H]3c3ccoc3)[C@@]21C` [AZADIRONE] returned a PFI of 48.3%.
The compound `COC(=O)C[C@H]1[C@]2(C)C3=C(C)[C@H](C4=CC(O)OC4=O)C[C@H]3O[C@@H]2[C@H](OC(C)=O)[C@@H]2[C@]1(C)C(=O)C=C[C@@]2(C)C(=O)OC` (some centres not stated) [NIMBINOLIDE] yielded a PFI of 26.7%.
Next, `CC(=O)OC1[C@H](O)[C@H]2C(C)(C)C(=O)CC[C@]2(C)[C@H]2CC[C@]3(C)C(=CC[C@H]3c3ccoc3)[C@]12C` (some centres not stated) [ISOMELDENIN]: 60.6%; `CC1(C)C(=O)[C@H]2O[C@H]2[C@@]2(C)C1=C(O)C(=O)[C@]1(C)[C@@H]2CC[C@@]2(C)[C@H](c3ccoc3)C[C@H]3O[C@]321` [CEDRELONE EPOXIDE]: 43.5%; `C/C=C(/C)C(=O)O[C@H]1C[C@@H](OC(C)=O)[C@@]2(C)CO[C@H]3[C@H]4O[C@@H]5C[C@@H](c6ccoc6)C(C)=C5[C@@]4(C)[C@H](CC(=O)OC)[C@]1(C)[C@@H]32` [SALANNIN]: 36.3%.
To `COC(=O)C[C@H]1[C@]2(C)C3=C(C)[C@H](c4ccoc4)C[C@H]3O[C@@H]2[C@@H]2OC(=O)[C@]3(C)C=CC(=O)[C@@]1(C)[C@@H]23` [NIMBOLIDE] belongs 37%; to `COC(=O)C[C@H]1[C@]2(C)C3=C(C)[C@H](c4ccoc4)C[C@H]3O[C@@H]2[C@H](O)[C@@H]2[C@]1(C)C(=O)C=C[C@@]2(C)C(=O)OC` [DEACETYLNIMBIN], 34.7%.
Next, `CC(=O)O[C@@H]1[C@H](O)[C@H]2C(C)(C)C(=O)C=C[C@]2(C)[C@H]2CC[C@@]3(C)[C@H](C45CC(O)OC4O5)C[C@@H]4O[C@@]43[C@]12C` (some centres not stated) [NIMONOL PP2]: 15.8%.
In turn, `CC(=O)O[C@@H]1[C@H](O)[C@H]2C(C)(C)C(=O)C=C[C@]2(C)[C@H]2CC[C@]3(C)C(=CC[C@H]3C3=CCOC3=O)[C@]12C` [NIMONOL MW] returned a PFI of 44.2%.
To `C=C1[C@@H]2CC[C@@]3(C)[C@H](c4ccoc4)OC(=O)C[C@]13O[C@H]1CC(=O)C(C)(C)[C@H](CC(=O)OC)[C@]12C` [METHYLANGOLENSATE] belongs 65.3%; to `COC1=C2C(C)(C)C(=O)C=C[C@]2(C)[C@H]2CC[C@@]3(C)[C@H](c4ccoc4)C[C@H]4O[C@]43[C@]2(C)C1=O` [CEDRELONEMETHYL ETHER], 56%.
To `CC(=O)OC1=C2C(C)(C)C(=O)C=C[C@]2(C)[C@H]2CC[C@@]3(C)[C@H](c4ccoc4)C[C@H]4O[C@]43[C@]2(C)C1=O` [CEDRELONE ACETATE] belongs 55%; to `COC(=O)C[C@H]1[C@]2(C)C3=C(C)[C@H](C4=CC(=O)OC4O)C[C@H]3O[C@@H]2[C@H](OC(C)=O)[C@@H]2[C@]1(C)C(=O)C=C[C@@]2(C)C(=O)OC` (some centres not stated) [NIMBIN PP], 19.9%; to `C/C=C(\C)C(=O)O[C@H]1C[C@@H](OC(C)=O)[C@@]2(C)CO[C@H]3[C@H]4O[C@@H]5C[C@@H](C6=CC(O)OC6=O)C(C)=C5[C@@]4(C)[C@H](CC(=O)OC)[C@]1(C)[C@@H]32` (some centres not stated) [SALANNOLIDE], 26.3%.
Consider `C/C=C(\C)C(=O)O[C@H]1C[C@@H](O)[C@@]2(C)CO[C@H]3[C@H]4O[C@@H]5C[C@@H](C6=CC(O)OC6=O)C(C)=C5[C@@]4(C)[C@H](CC(=O)OC)[C@]1(C)[C@@H]32` (some centres not stated) [DESACETYL SALANNOLIDE], for which the PFI worked out at 28.44%.
Next, `C/C=C(\C)C(=O)O[C@@H]1[C@@H]2OC[C@]3(C)[C@H](O)C[C@H](O)[C@@]4(CO[C@H](C(=O)OC)[C@H]4[C@]1(C)[C@]14O[C@@]1(C)[C@H]1C[C@@H]4O[C@@H]4OC=C[C@@]41O)[C@@H]23` [3-TIGLOYL MELIACARPIN]: 13.3%.

These data come from ChEMBL document CHEMBL3045786, “Insect antifeedant activity of tetranortriterpenoids from the Rutales. A perusal of structural relations” (2002).
